Results as given in PMC2982748 (Arteriosclerosis, thrombosis, and vascular biology, 2010).

Molecular target: P2Y12 (Homo sapiens, UniProt Q9H244)
Experiment: β-arrestin recruitment
Format: cell-based

Sequence of P2Y12 (Q9H244 whole entry): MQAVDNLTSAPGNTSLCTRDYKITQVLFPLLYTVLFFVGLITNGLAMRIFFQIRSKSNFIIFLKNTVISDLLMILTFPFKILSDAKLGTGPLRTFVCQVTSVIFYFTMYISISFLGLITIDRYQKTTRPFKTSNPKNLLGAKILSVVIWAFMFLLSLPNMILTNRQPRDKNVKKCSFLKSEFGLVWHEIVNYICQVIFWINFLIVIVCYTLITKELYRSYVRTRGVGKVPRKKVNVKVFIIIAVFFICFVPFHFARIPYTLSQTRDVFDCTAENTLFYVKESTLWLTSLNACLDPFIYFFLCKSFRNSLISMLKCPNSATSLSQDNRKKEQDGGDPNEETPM

Row | SMILES | EC50
1 | CCCCC/C=C\C\C=C/C=C/C=C/[C@@H](SC[C@H](N)C(=O)O)[C@@H](O)CCCC(=O)O [LTE4] | 0.013 nM
2 | Nc1ncnc2c1ncn2[C@@H]1O[C@H](COP(=O)(O)OP(=O)(O)O)[C@@H](O)[C@H]1O [ADP] | 5000 nM
